{"source": "paper PMC7377239", "about": "“Cardiovascular Effects of Polychlorinated Biphenyls and Their Major Metabolites” (Environmental Health Perspectives, 2020)", "key": {"[1]": {"tested_on": "iCell endothelial cells (human iPSC-derived ECs)", "assay": "High-content imaging cytotoxicity in iCell endothelial cells, 24 h", "type": "cell-based", "settings": "Homo sapiens, Endothelial cell, iPSC-EC, 24 hr; for viability at 0.1 µM / activity at 0.1 µM: 0.10 µM; for minimal effective concentration: top concentration 100.00 µM", "method_in_brief": "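Human iPSC-derived endothelial cells (passages 1–5) were grown to a fibronectin-coated monolayer, then exposed 24 h at 37 °C with 0.5% DMSO vehicle. Staining was Hoechst 33342, MitoTracker Orange and calcein AM, read by high-content imaging. Point of departure came from 4-parameter logistic fits, with a 1-SD vehicle cutoff and 100 µM as the top concentration.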"}, "HUVECs": {"tested_on": "HUVECs", "assay": "High-content imaging cytotoxicity in HUVECs, 24 h", "type": "cell-based, human", "settings": "Homo sapiens, HUVEC, 24 h, HUVECs; for viability at 0.01 µM / activity at 0.01 µM / viability at 0.1 µM / activity at 0.1 µM / viability at 1 µM / activity at 1 µM / viability at 10 µM / activity at 10 µM / viability at 100 µM / activity at 100 µM: 0.00 µM = 100.00; for viability at 0.1 µM / activity at 0.1 µM: 0.10 µM; for minimal effective concentration: top concentration 100.00 µM", "method_in_brief": "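HUVECs (passages 1–5) were plated at 750 cells/well without fibronectin, grown to a monolayer (3–5 d) and exposed to compounds for 24 h at 37°C, 5% CO2. Hoechst 33342, MitoTracker Orange and calcein AM staining was imaged at 10×; readouts were normalized to 0.5% DMSO vehicle and fit to a four-parameter logistic model.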"}, "[2]": {"settings": "0.00 µM control = 100.00, read-out: endo.cyto.24hr"}, "[3]": {"settings": "0.00 µM control = 100.00, read-out: endo.mito.24hr"}, "[4]": {"settings": "0.00 µM control = 100.00, read-out: endo.mitoint.24hr"}, "[5]": {"settings": "0.00 µM control = 100.00, read-out: endo.nma.24hr"}, "[6]": {"settings": "0.00 µM control = 100.00, read-out: endo.tc.24hrs"}, "[7]": {"settings": "24 hr, read-out: huvec.cyto.24hr"}, "[8]": {"settings": "24 hr, read-out: huvec.mito.24hr"}, "[9]": {"settings": "24 hr, read-out: huvec.mitoint.24hr"}, "[10]": {"settings": "24 hr, read-out: huvec.nma.24hr"}, "[11]": {"settings": "24 hrs, read-out: huvec.tc.24hrs"}}, "note": "Like-named read-outs stand apart in the source and are kept apart here.", "data": [{"smiles": "COc1ccc(-c2cccc(Cl)c2)cc1Cl", "note": "[4-OMe PCB11]", "values": [{"measurement": "viability at 0.01 µM", "setting": "[1]; [2]", "result": 88.3, "unit": "%"}, {"measurement": "activity at 0.01 µM", "setting": "[1]; [3]", "result": 88.6, "unit": "%"}, {"measurement": "activity at 0.01 µM", "setting": "[1]; [4]", "result": 94.9, "unit": "%"}, {"measurement": "activity at 0.01 µM", "setting": "[1]; [5]", "result": 107, "unit": "%"}, {"measurement": "viability at 0.01 µM", "setting": "[1]; [6]", "result": 88.3, "unit": "%"}, {"measurement": "viability at 0.1 µM", "setting": "[1]; [2]", "result": 101, "unit": "%"}, {"measurement": "activity at 0.1 µM", "setting": "[1]; [3]", "result": 100, "unit": "%"}, {"measurement": "activity at 0.1 µM", "setting": "[1]; [4]", "result": 87, "unit": "%"}, {"measurement": "activity at 0.1 µM", "setting": "[1]; [5]", "result": 104, "unit": "%"}, {"measurement": "viability at 0.1 µM", "setting": "[1]; [6]", "result": 101, "unit": "%"}, {"measurement": "viability at 1 µM", "setting": "[1]; [2]", "result": 99.8, "unit": "%"}, {"measurement": "activity at 1 µM", "setting": "[1]; [3]", "result": 99.2, "unit": "%"}, {"measurement": "activity at 1 µM", "setting": "[1]; [4]", "result": 87.7, "unit": "%"}, {"measurement": "activity at 1 µM", "setting": "[1]; [5]", "result": 100, "unit": "%"}, {"measurement": "viability at 1 µM", "setting": "[1]; [6]", "result": 99.8, "unit": "%"}, {"measurement": "viability at 10 µM", "setting": "[1]; [2]", "result": 100, "unit": "%"}, {"measurement": "activity at 10 µM", "setting": "[1]; [3]", "result": 100, "unit": "%"}, {"measurement": "activity at 10 µM", "setting": "[1]; [4]", "result": 97.5, "unit": "%"}, {"measurement": "activity at 10 µM", "setting": "[1]; [5]", "result": 101, "unit": "%"}, {"measurement": "viability at 10 µM", "setting": "[1]; [6]", "result": 100, "unit": "%"}, {"measurement": "viability at 100 µM", "setting": "[1]; [2]", "result": 97.3, "unit": "%"}, {"measurement": "activity at 100 µM", "setting": "[1]; [3]", "result": 98, "unit": "%"}, {"measurement": "activity at 100 µM", "setting": "[1]; [4]", "result": 98.6, "unit": "%"}, {"measurement": "activity at 100 µM", "setting": "[1]; [5]", "result": 102, "unit": "%"}, {"measurement": "viability at 100 µM", "setting": "[1]; [6]", "result": 97.3, "unit": "%"}, {"measurement": "minimal effective concentration", "setting": "[1]; read-out: endo.cyto.24hr POD", "result": 100, "unit": "µM"}, {"measurement": "minimal effective concentration", "setting": "[1]; read-out: endo.mito.24hr POD", "result": 100, "unit": "µM"}, {"measurement": "minimal effective concentration", "setting": "[1]; read-out: endo.mitoint.24hr POD", "result": 100, "unit": "µM"}, {"measurement": "minimal effective concentration", "setting": "[1]; read-out: endo.nma.24hr POD", "result": 100, "unit": "µM"}, {"measurement": "minimal effective concentration", "setting": "[1]; read-out: endo.tc.24hrs POD", "result": 100, "unit": "µM"}, {"measurement": "viability at 0.01 µM", "setting": "HUVECs; [7]", "result": 96.4, "unit": "%"}, {"measurement": "activity at 0.01 µM", "setting": "HUVECs; [8]", "result": 94.6, "unit": "%"}, {"measurement": "activity at 0.01 µM", "setting": "HUVECs; [9]", "result": 95.4, "unit": "%"}, {"measurement": "activity at 0.01 µM", "setting": "HUVECs; [10]", "result": 96.3, "unit": "%"}, {"measurement": "viability at 0.1 µM", "setting": "HUVECs; [7]", "result": 98.3, "unit": "%"}, {"measurement": "activity at 0.1 µM", "setting": "HUVECs; [8]", "result": 98.5, "unit": "%"}, {"measurement": "activity at 0.1 µM", "setting": "HUVECs; [9]", "result": 106, "unit": "%"}, {"measurement": "activity at 0.1 µM", "setting": "HUVECs; [10]", "result": 101, "unit": "%"}, {"measurement": "viability at 1 µM", "setting": "HUVECs; [7]", "result": 101, "unit": "%"}, {"measurement": "activity at 1 µM", "setting": "HUVECs; [8]", "result": 100, "unit": "%"}, {"measurement": "activity at 1 µM", "setting": "HUVECs; [9]", "result": 103, "unit": "%"}, {"measurement": "activity at 1 µM", "setting": "HUVECs; [10]", "result": 100, "unit": "%"}, {"measurement": "viability at 10 µM", "setting": "HUVECs; [7]", "result": 89.7, "unit": "%"}, {"measurement": "activity at 10 µM", "setting": "HUVECs; [8]", "result": 86.4, "unit": "%"}, {"measurement": "activity at 10 µM", "setting": "HUVECs; [9]", "result": 95.6, "unit": "%"}, {"measurement": "activity at 10 µM", "setting": "HUVECs; [10]", "result": 92.7, "unit": "%"}, {"measurement": "viability at 100 µM", "setting": "HUVECs; [7]", "result": 56.3, "unit": "%"}, {"measurement": "activity at 100 µM", "setting": "HUVECs; [8]", "result": 44, "unit": "%"}, {"measurement": "activity at 100 µM", "setting": "HUVECs; [9]", "result": 65.8, "unit": "%"}, {"measurement": "activity at 100 µM", "setting": "HUVECs; [10]", "result": 73.1, "unit": "%"}, {"measurement": "minimal effective concentration", "setting": "HUVECs; 24 hr, read-out: huvec.cyto.24hr POD", "result": 7.59, "unit": "µM"}, {"measurement": "minimal effective concentration", "setting": "HUVECs; 24 hr, read-out: huvec.mito.24hr POD", "result": 6.19, "unit": "µM"}, {"measurement": "minimal effective concentration", "setting": "HUVECs; 24 hr, read-out: huvec.mitoint.24hr POD", "result": 16, "unit": "µM"}, {"measurement": "minimal effective concentration", "setting": "HUVECs; 24 hr, read-out: huvec.nma.24hr POD", "result": 6.39, "unit": "µM"}, {"measurement": "viability at 0.01 µM", "setting": "HUVECs; [11]", "result": 96.4, "unit": "%"}, {"measurement": "viability at 0.1 µM", "setting": "HUVECs; [11]", "result": 98.4, "unit": "%"}, {"measurement": "viability at 1 µM", "setting": "HUVECs; [11]", "result": 101, "unit": "%"}, {"measurement": "viability at 10 µM", "setting": "HUVECs; [11]", "result": 89.7, "unit": "%"}, {"measurement": "viability at 100 µM", "setting": "HUVECs; [11]", "result": 56.4, "unit": "%"}, {"measurement": "minimal effective concentration", "setting": "HUVECs; 24 hrs, read-out: huvec.tc.24hrs POD", "result": 7.59, "unit": "µM"}]}]}
